Measured values from US7442699B2, “Anilinopyrimidine derivatives as IKK inhibitors and compositions and methods related thereto” (Signal Pharmaceuticals, LLC, priority 2000, dated 2008).
Read-outs that look alike come from different tables or passages of the source.

Target: T1, IKK-2 (Homo sapiens, UniProt O14920, S177E/S181E)
T1 construct: His6
T1 sequence (O14920 1-756 S177E/S181E): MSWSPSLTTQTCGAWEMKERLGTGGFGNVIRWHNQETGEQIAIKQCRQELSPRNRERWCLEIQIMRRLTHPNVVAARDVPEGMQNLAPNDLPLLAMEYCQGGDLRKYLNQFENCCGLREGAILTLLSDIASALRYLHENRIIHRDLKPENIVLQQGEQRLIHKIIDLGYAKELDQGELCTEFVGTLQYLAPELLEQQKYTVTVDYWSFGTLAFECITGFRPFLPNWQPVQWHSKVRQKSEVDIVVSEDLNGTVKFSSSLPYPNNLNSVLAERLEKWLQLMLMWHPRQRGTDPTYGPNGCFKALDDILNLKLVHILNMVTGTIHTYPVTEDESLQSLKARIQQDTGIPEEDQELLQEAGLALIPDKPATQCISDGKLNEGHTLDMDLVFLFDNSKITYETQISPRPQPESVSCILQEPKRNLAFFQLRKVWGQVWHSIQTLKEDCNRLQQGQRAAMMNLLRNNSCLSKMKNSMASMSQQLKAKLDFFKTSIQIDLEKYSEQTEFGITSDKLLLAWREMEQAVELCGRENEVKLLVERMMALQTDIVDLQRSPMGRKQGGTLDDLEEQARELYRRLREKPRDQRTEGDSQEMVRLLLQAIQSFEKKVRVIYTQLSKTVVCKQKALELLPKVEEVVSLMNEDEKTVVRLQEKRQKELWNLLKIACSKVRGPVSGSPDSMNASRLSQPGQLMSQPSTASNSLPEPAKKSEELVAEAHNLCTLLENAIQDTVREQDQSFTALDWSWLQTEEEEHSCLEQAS
Assay: IKK-2 Enzyme Assay
Type: biochemical
Experimental: The mixture is preincubated for 15 minutes at room temperature. […] After 30 minutes the precipitate is harvested onto a filter plate to which 50 μl of scintillation fluid is added and then quantified by a scintillation counter.

[1] = preferred compounds, 1 μM or less, read-out: IC50 value in the IKK-2 Enzyme Assay
[2] = more preferred compounds, 500 nM or less, read-out: IC50 value in the IKK-2 Enzyme Assay

Structure (SMILES) | IC50 [1] | IC50 [2] | IC50 (IC50 value in the IKK-2 Enzyme Assay, more preferred compounds, 500 nM or less) | IC50 (IC50 value in the IKK-2 Enzyme Assay, preferred compounds, 1 μM or less)
NC(=O)c1ccc(Nc2nccc(-c3ccc(Cl)cc3)n2)cc1 [Compound 1, 4-{[4-(4-chlorophenyl)pyrimidin-2-yl]amino}benzamide] | ≤ 1000 nM |  |  | 
NC(=O)c1ccc(Nc2nccc(-c3ccc(S(=O)(=O)c4ccncc4)cc3)n2)cc1 [Compound 3-8] | ≤ 1000 nM | ≤ 500 nM |  | 
NC(=O)c1ccc(Nc2nccc(-c3ccc(S(=O)(=O)c4ccccn4)cc3)n2)cc1 [Compound 3-9] | ≤ 1000 nM |  |  | 
NC(=O)c1ccc(Nc2nccc(-c3ccc(S(=O)(=O)c4cccnc4)cc3)n2)cc1 [Compound 3-13] | ≤ 1000 nM |  |  | 
NC(=O)c1ccc(Nc2nccc(-c3ccc(SCCCO)cc3)n2)cc1 [Compound 3-14] | ≤ 1000 nM | ≤ 500 nM |  | 
NC(=O)c1ccc(Nc2nccc(-c3ccc(S(=O)(=O)CCCO)cc3)n2)cc1 [Compound 3-15] | ≤ 1000 nM |  |  | 
NC(=O)c1ccc(Nc2nccc(-c3ccc(S(=O)(=O)c4ccccc4)cc3)n2)cc1 [Compound 3-21] | ≤ 1000 nM | ≤ 500 nM |  | 
NC(=O)c1ccc(Nc2nccc(-c3ccc4ccccc4c3)n2)cc1 [Compound 3-34] | ≤ 1000 nM |  |  | 
CN(C)C(=O)c1ccc(Nc2nccc(-c3ccc(Cl)cc3)n2)cc1 [Compound 17-2] | ≤ 1000 nM | ≤ 500 nM |  | 
CNC(=O)c1ccc(Nc2nccc(-c3ccc(Cl)cc3)n2)cc1 [Compound 17-3] | ≤ 1000 nM |  |  | 
CN(C)C(=O)c1ccc(Nc2nccc(-c3ccc(Br)cc3)n2)cc1 [Compound 17-18] | ≤ 1000 nM | ≤ 500 nM |  | 
O=C(c1ccc(Nc2nccc(-c3ccc(Cl)cc3)n2)cc1)N1CCC(O)CC1 [Compound 17-20] | ≤ 1000 nM | ≤ 500 nM |  | 
O=C(NCCCn1ccnc1)c1ccc(Nc2nccc(-c3ccc(Cl)cc3)n2)cc1 [Compound 17-21] | ≤ 1000 nM |  |  | 
CC(=O)NCCNC(=O)c1ccc(Nc2nccc(-c3ccc(Cl)cc3)n2)cc1 [Compound 17-22] | ≤ 1000 nM |  |  | 
O=C(NCCCN1CCCCC1)c1ccc(Nc2nccc(-c3ccc(Cl)cc3)n2)cc1 [Compound 17-23] | ≤ 1000 nM |  |  | 
O=C(NCCCO)c1ccc(Nc2nccc(-c3ccc(Cl)cc3)n2)cc1 [Compound 17-25] | ≤ 1000 nM |  |  | 
O=C(c1ccc(Nc2nccc(-c3ccc(Cl)cc3)n2)cc1)N1CCC[C@@H]1CO [Compound 17-27] | ≤ 1000 nM | ≤ 500 nM |  | 
O=C(c1ccc(Nc2nccc(-c3ccc(Cl)cc3)n2)cc1)N1CCC(O)C1 (stereo not drawn) [Compound 17-28] | ≤ 1000 nM | ≤ 500 nM |  | 
CC(=O)N1CCN(C(=O)c2ccc(Nc3nccc(-c4ccc(S(=O)(=O)c5ccncc5)cc4)n3)cc2)CC1 [Compound 17-29] | ≤ 1000 nM | ≤ 500 nM |  | 
O=C(c1ccc(Nc2nccc(-c3ccc(S(=O)(=O)c4ccncc4)cc3)n2)cc1)N1CCN(C(=O)c2ccco2)CC1 [Compound 17-30] | ≤ 1000 nM | ≤ 500 nM |  | 

Structure (SMILES) | IC50 [1] | IC50 [2] | IC50 (IC50 value in the IKK-2 Enzyme Assay, more preferred compounds, 500 nM or less) | IC50 (IC50 value in the IKK-2 Enzyme Assay, preferred compounds, 1 μM or less)
CN(C)C(=O)c1ccc(Nc2nccc(-c3ccc(SCCCO)cc3)n2)cc1 [Compound 17-31] | ≤ 1000 nM | ≤ 500 nM |  | 
CC(C)NC(=O)CN1CCN(C(=O)c2ccc(Nc3nccc(-c4ccc(SCCCO)cc4)n3)cc2)CC1 [Compound 17-32] | ≤ 1000 nM | ≤ 500 nM |  | 
CC(=O)N1CCN(C(=O)c2ccc(Nc3nccc(-c4ccc(SCCCO)cc4)n3)cc2)CC1 [Compound 17-33] | ≤ 1000 nM | ≤ 500 nM |  | 
O=C(c1ccc(Nc2nccc(-c3ccc(SCCCO)cc3)n2)cc1)N1CCN(C(=O)c2ccco2)CC1 [Compound 17-34] | ≤ 1000 nM | ≤ 500 nM |  | 
CCN1CCN(C(=O)c2ccc(Nc3nccc(-c4ccc(Cl)cc4)n3)cc2)CC1 [Compound 17-35] | ≤ 1000 nM | ≤ 500 nM |  | 
CC(C)(C)OC(=O)N1CCN(C(=O)c2ccc(Nc3nccc(-c4ccc(Cl)cc4)n3)cc2)CC1 [Compound 17-36] | ≤ 1000 nM | ≤ 500 nM |  | 
CCC(=O)N1CCN(C(=O)c2ccc(Nc3nccc(-c4ccc(Cl)cc4)n3)cc2)CC1 [Compound 17-37] |  | ≤ 500 nM |  | 
O=C(NCCCN1CCCC1=O)c1ccc(Nc2nccc(-c3ccc(Cl)cc3)n2)cc1 [Compound 17-54] | ≤ 1000 nM |  |  | 
O=C(c1ccc(Nc2nccc(-c3ccc(Cl)cc3)n2)cc1)N1CCCCC1 [Compound 17-71] | ≤ 1000 nM |  |  | 
COCCCNC(=O)c1ccc(Nc2nccc(-c3ccc(Cl)cc3)n2)cc1 [Compound 17-72] | ≤ 1000 nM |  |  | 
O=C(NCCCN1CCOCC1)c1ccc(Nc2nccc(-c3ccc(Cl)cc3)n2)cc1 [Compound 17-86] | ≤ 1000 nM | ≤ 500 nM |  | 
COC(=O)CNC(=O)c1ccc(Nc2nccc(-c3ccc(Cl)cc3)n2)cc1 [Compound 17-91] | ≤ 1000 nM | ≤ 500 nM |  | 
O=C(NCCc1ccccn1)c1ccc(Nc2nccc(-c3ccc(Cl)cc3)n2)cc1 [Compound 17-118] | ≤ 1000 nM |  |  | 
CN1CCN(C(=O)c2ccc(Nc3nccc(-c4ccc(Cl)cc4)n3)cc2)CC1 [Compound 17-127] | ≤ 1000 nM | ≤ 500 nM |  | 
O=C(c1ccc(Nc2nccc(-c3ccc(Cl)cc3)n2)cc1)N1CCN(Cc2ccc3c(c2)OCO3)CC1 [Compound 17-128] | ≤ 1000 nM |  |  | 
CC(=O)N1CCN(C(=O)c2ccc(Nc3nccc(-c4ccc(Cl)cc4)n3)cc2)CC1 [Compound 17-129] | ≤ 1000 nM | ≤ 500 nM |  | 
O=CN1CCN(C(=O)c2ccc(Nc3nccc(-c4ccc(Cl)cc4)n3)cc2)CC1 [Compound 17-131] | ≤ 1000 nM | ≤ 500 nM |  | 
CCCNC(=O)c1ccc(Nc2nccc(-c3ccc(Cl)cc3)n2)cc1 [Compound 17-132] | ≤ 1000 nM |  |  | 
O=C(c1ccc(Nc2nccc(-c3ccc(Cl)cc3)n2)cc1)N1CCOCC1 [Compound 17-133] | ≤ 1000 nM | ≤ 500 nM |  | 
O=C(c1ccc(Nc2nccc(-c3ccc(Cl)cc3)n2)cc1)N1CCN(c2ccc([N+](=O)[O-])cc2)CC1 [Compound 17-136] | ≤ 1000 nM |  |  | 

Structure (SMILES) | IC50 [1] | IC50 [2] | IC50 (IC50 value in the IKK-2 Enzyme Assay, more preferred compounds, 500 nM or less) | IC50 (IC50 value in the IKK-2 Enzyme Assay, preferred compounds, 1 μM or less)
CCOC(=O)N1CCN(C(=O)c2ccc(Nc3nccc(-c4ccc(Cl)cc4)n3)cc2)CC1 [Compound 17-137] | ≤ 1000 nM | ≤ 500 nM |  | 
O=C(c1ccc(Nc2nccc(-c3ccc(Cl)cc3)n2)cc1)N1CCC2(CC1)OCCO2 [Compound 17-139] |  |  | ≤ 500 nM | ≤ 1000 nM
CC(C)NC(=O)CN1CCN(C(=O)c2ccc(Nc3nccc(-c4ccc(Cl)cc4)n3)cc2)CC1 [Compound 17-141] | ≤ 1000 nM | ≤ 500 nM |  | 
O=C(NCCN1CCOCC1)c1ccc(Nc2nccc(-c3ccc(Cl)cc3)n2)cc1 [Compound 17-142] | ≤ 1000 nM |  |  | 
O=C(c1ccc(Nc2nccc(-c3ccc(Cl)cc3)n2)cc1)N1CC=CCC1 [Compound 17-144] | ≤ 1000 nM |  |  | 
CCN(Cc1ccncc1)C(=O)c1ccc(Nc2nccc(-c3ccc(Cl)cc3)n2)cc1 [Compound 17-147] | ≤ 1000 nM |  |  | 
CN(C)CCN(Cc1ccccc1)C(=O)c1ccc(Nc2nccc(-c3ccc(Cl)cc3)n2)cc1 [Compound 17-150] | ≤ 1000 nM | ≤ 500 nM |  | 
CN(CCc1ccccn1)C(=O)c1ccc(Nc2nccc(-c3ccc(Cl)cc3)n2)cc1 [Compound 17-151] | ≤ 1000 nM |  |  | 
CN1CCCC1CCNC(=O)c1ccc(Nc2nccc(-c3ccc(Cl)cc3)n2)cc1 (stereo not drawn) [Compound 17-152] | ≤ 1000 nM |  |  | 
CCN(CC)CCCNC(=O)c1ccc(Nc2nccc(-c3ccc(Cl)cc3)n2)cc1 [Compound 17-153] | ≤ 1000 nM |  |  | 
CN(C)CCCNC(=O)c1ccc(Nc2nccc(-c3ccc(Cl)cc3)n2)cc1 [Compound 17-154] | ≤ 1000 nM | ≤ 500 nM |  | 
O=C(c1ccc(Nc2nccc(-c3ccc(Cl)cc3)n2)cc1)N1CCN(c2ccccc2)CC1 [Compound 17-158] | ≤ 1000 nM |  |  | 
O=C(c1ccc(Nc2nccc(-c3ccc(Cl)cc3)n2)cc1)N1CCN(C(=O)c2ccco2)CC1 [Compound 17-159] | ≤ 1000 nM | ≤ 500 nM |  | 
CC(=O)N1CCCN(C(=O)c2ccc(Nc3nccc(-c4ccc(Cl)cc4)n3)cc2)CC1 [Compound 17-160] | ≤ 1000 nM | ≤ 500 nM |  | 
O=C(c1ccc(Nc2nccc(-c3ccc(Cl)cc3)n2)cc1)N1CCN(Cc2cccnc2)CC1 [Compound 17-161] | ≤ 1000 nM | ≤ 500 nM |  | 
CCN(C(C)=O)C1CCN(C(=O)c2ccc(Nc3nccc(-c4ccc(Cl)cc4)n3)cc2)C1 (stereo not drawn) [Compound 17-162] | ≤ 1000 nM | ≤ 500 nM |  | 
CC(=O)N(C)C1CCN(C(=O)c2ccc(Nc3nccc(-c4ccc(Cl)cc4)n3)cc2)C1 (stereo not drawn) [Compound 17-163] | ≤ 1000 nM | ≤ 500 nM |  | 
O=C(c1ccc(Nc2nccc(-c3ccc(Cl)cc3)n2)cc1)N1CCC(N2CCCCC2)CC1 [Compound 17-169] | ≤ 1000 nM | ≤ 500 nM |  | 
O=C(c1ccc(Nc2nccc(-c3ccc(Cl)cc3)n2)cc1)N1CCC(N2CCCC2)CC1 [Compound 17-171] | ≤ 1000 nM | ≤ 500 nM |  | 
